In the supplement of paper PMC6045584:
± gives the standard deviation of the averaged measurements.

Legend:
SOTRASTAURIN/AEB071 = compound: CN1CCN(c2nc(C3=C(c4c[nH]c5ccccc45)C(=O)NC3=O)c3ccccc3n2)CC1 [SOTRASTAURIN/AEB071]; assay: surviving fraction relative to DMSO-only wells; higher = less growth inhibition; conditions: exposure time: 5 days
How it was run: (§1)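 At 250–500 cells per well in 384-well plates, log-phase tumour cell lines were seeded and, 24 hours on, exposed continuously for five days to inhibitors at 0.5, 1, 5, 10, 50, 100, 500 and 1000 nM. Viability readout was CellTiter-Glo luminescence, reported as surviving fraction normalised to the median of DMSO-only wells.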

[1] = compound: CNCc1ccc(-c2[nH]c3cc(F)cc4c3c2CCNC4=O)cc1; assay: as above; conditions: exposure time: 5 days
How it was run: as §1

Test System | surviving fraction (SOTRASTAURIN/AEB071; 0.5 nM) | surviving fraction (SOTRASTAURIN/AEB071; 1 nM) | surviving fraction (SOTRASTAURIN/AEB071; 5 nM) | surviving fraction (SOTRASTAURIN/AEB071; 10 nM) | surviving fraction (SOTRASTAURIN/AEB071; 50 nM) | surviving fraction (SOTRASTAURIN/AEB071; 100 nM) | surviving fraction (SOTRASTAURIN/AEB071; 500 nM) | surviving fraction (SOTRASTAURIN/AEB071; 1000 nM) | surviving fraction ([1]; 0.5 nM) | surviving fraction ([1]; 1 nM) | surviving fraction ([1]; 5 nM) | surviving fraction ([1]; 10 nM) | surviving fraction ([1]; 50 nM) | surviving fraction ([1]; 100 nM) | surviving fraction ([1]; 500 nM) | surviving fraction ([1]; 1000 nM)
SYO1 SYNOVIAL | 1.02 ± 0.053 | 1.01 ± 0.058 | 1.04 ± 0.063 | 0.991 ± 0.068 | 0.869 ± 0.031 | 0.875 ± 0.021 | 0.891 ± 0.038 | 0.909 ± 0.038 | 0.954 ± 0.081 | 0.921 ± 0.022 | 0.842 ± 0.014 | 0.8 ± 0.019 | 0.655 ± 0.029 | 0.587 ± 0.032 | 0.455 ± 0.037 | 0.351 ± 0.04
T47D BREAST | 1.03 ± 0.05 | 1.042 ± 0.0044 | 0.988 ± 0.034 | 1.03 ± 0.038 | 1.03 ± 0.05 | 1.05 ± 0.014 | 1.1 ± 0.028 | 1.09 ± 0.022 | 0.999 ± 0.015 | 1.04 ± 0.019 | 1.04 ± 0.021 | 0.999 ± 0.019 | 0.969 ± 0.033 | 0.954 ± 0.046 | 0.911 ± 0.0085 | 0.943 ± 0.023
U2OS BONE | 1.04 ± 0.058 | 1.008 ± 0.0065 | 1.11 ± 0.037 | 1.044 ± 0.0091 | 1.03 ± 0.051 | 1.02 ± 0.045 | 0.939 ± 0.027 | 0.929 ± 0.029 | 1 ± 0.016 | 1.01 ± 0.051 | 1.03 ± 0.036 | 1.06 ± 0.031 | 0.961 ± 0.011 | 0.926 ± 0.037 | 0.883 ± 0.013 | 0.774 ± 0.052
VCAP PROSTATE | 1.08 ± 0.18 | 1.01 ± 0.11 | 1.08 ± 0.06 | 1.03 ± 0.096 | 0.883 ± 0.1 | 1.1 ± 0.052 | 0.941 ± 0.085 | 0.931 ± 0.13 | 1.01 ± 0.11 | 1.04 ± 0.14 | 1.06 ± 0.21 | 1.04 ± 0.052 | 0.921 ± 0.12 | 1.02 ± 0.07 | 0.881 ± 0.15 | 0.908 ± 0.092
VP229 BREAST | 1.07 ± 0.054 | 1.23 ± 0.1 | 0.995 ± 0.023 | 1.04 ± 0.13 | 0.952 ± 0.084 | 0.812 ± 0.059 | 0.956 ± 0.13 | 0.856 ± 0.19 | 1.15 ± 0.18 | 1.01 ± 0.14 | 1.04 ± 0.058 | 1.01 ± 0.12 | 0.954 ± 0.042 | 0.848 ± 0.076 | 0.823 ± 0.05 | 0.917 ± 0.067
YAMATO SYNOVIAL | 1.14 ± 0.068 | 1.23 ± 0.018 | 1.28 ± 0.13 | 1.38 ± 0.11 | 0.962 ± 0.096 | 0.968 ± 0.032 | 0.945 ± 0.024 | 0.96 ± 0.059 | 1.32 ± 0.043 | 1.35 ± 0.12 | 1.28 ± 0.066 | 1.3 ± 0.1 | 0.949 ± 0.13 | 0.982 ± 0.11 | 0.794 ± 0.022 | 0.811 ± 0.13
ZR751 BREAST | 1.19 ± 0.11 | 1.3 ± 0.22 | 1.1 ± 0.15 | 1.16 ± 0.15 | 1.07 ± 0.092 | 1.1 ± 0.039 | 0.983 ± 0.15 | 1 ± 0.12 | 0.991 ± 0.15 | 0.962 ± 0.049 | 0.981 ± 0.075 | 1.1 ± 0.11 | 0.873 ± 0.056 | 0.903 ± 0.075 | 0.823 ± 0.037 | 0.709 ± 0.12
